# Values of other authors in patent US20230027739A1, “ANTIGEN-BINDING AND ANTIGEN D[…]” (Entrada Therapeutics, Inc., priority 2021, published 2023).
# Key:
# [1] = for Amino Acid SASA Values, Theoretical: theoretical values as reported by Tien, et al.
# [2] = for Amino Acid Hydrophobicity, Eisenberg and Weiss: hydrophobicity scale of Eisenberg and Weiss; for Amino Acid Hydrophobicity, Engleman et al.: hydrophobicity scale of Engleman et al.; for Amino Acid Hydrophobicity, Hoop and Woods: hydrophobicity scale of Hoop and Woods; for Amino Acid Hydrophobicity, Janin: hydrophobicity scale of Janin; for Amino Acid Hydrophobicity, Kyrie and Doolittle: hydrophobicity scale of Kyrie and Doolittle
SMILES,"Amino Acid SASA Values, Miller et al. (1987) [1] [Å^2]","Amino Acid SASA Values, Rose et al. (1985) [1] [Å^2]","Amino Acid SASA Values, Empirical [1] [Å^2]","Amino Acid SASA Values, Theoretical [1] [Å^2]","Amino Acid Hydrophobicity, Eisenberg and Weiss [2]","Amino Acid Hydrophobicity, Engleman et al. [2]","Amino Acid Hydrophobicity, Hoop and Woods [2]","Amino Acid Hydrophobicity, Janin [2]","Amino Acid Hydrophobicity, Kyrie and Doolittle [2]"
NCC(=O)O [Glycine],85.0,88.1,97.0,104.0,–,–,–,–,–
N[C@@H](Cc1c[nH]c2ccccc12)C(=O)O [Tryptophan],259.0,266.3,264.0,285.0,–,–,–,–,–
N[C@@H](CO)C(=O)O [Serine],122.0,129.8,143.0,155.0,–,–,–,–,–
N[C@@H](CS)C(=O)O [Cys],–,–,–,–,0.04,2.0,−1.0,0.9,2.5
N[C@@H](Cc1ccc(O)cc1)C(=O)O [Tyr],–,–,–,–,0.02,−0.7,−2.3,−0.4,−1.3
NCCCC[C@H](N)C(=O)O [Lys],–,–,–,–,−1.10,−8.8,3.0,−1.8,−3.9
C[C@@H](O)[C@H](N)C(=O)O [Threonine],146.0,152.5,163.0,172.0,–,–,–,–,–
CC(C)[C@H](N)C(=O)O [Valine],160.0,164.5,165.0,174.0,–,–,–,–,–
N[C@@H](CC(=O)O)C(=O)O [Asp],–,–,–,–,−0.72,−9.2,3.0,−0.6,−3.5
C[C@@H](O)[C@H](N)C(=O)O [Thr],–,–,–,–,−0.18,1.2,−0.4,−0.2,−0.7
N[C@@H](Cc1ccccc1)C(=O)O [Phe],–,–,–,–,0.61,3.7,−2.5,0.5,2.8
NCCCC[C@H](N)C(=O)O [Lysine],211.0,225.8,230.0,236.0,–,–,–,–,–
C[C@H](N)C(=O)O [Ala],–,–,–,–,0.25,1.6,−0.5,0.3,1.8
N[C@@H](Cc1c[nH]cn1)C(=O)O [His],–,–,–,–,−0.40,−3.0,−0.5,−0.1,−3.2
N[C@@H](Cc1c[nH]cn1)C(=O)O [Histidine],194.0,202.5,216.0,224.0,–,–,–,–,–
C[C@H](N)C(=O)O [Alanine],113.0,118.1,121.0,129.0,–,–,–,–,–
CSCC[C@H](N)C(=O)O [Met],–,–,–,–,0.26,3.4,−1.3,0.4,1.9

SMILES,"Amino Acid SASA Values, Miller et al. (1987) [1] [Å^2]","Amino Acid SASA Values, Rose et al. (1985) [1] [Å^2]","Amino Acid SASA Values, Empirical [1] [Å^2]","Amino Acid SASA Values, Theoretical [1] [Å^2]","Amino Acid Hydrophobicity, Eisenberg and Weiss [2]","Amino Acid Hydrophobicity, Engleman et al. [2]","Amino Acid Hydrophobicity, Hoop and Woods [2]","Amino Acid Hydrophobicity, Janin [2]","Amino Acid Hydrophobicity, Kyrie and Doolittle [2]"
NC(=O)C[C@H](N)C(=O)O [Asn],–,–,–,–,−0.64,−4.8,0.2,−0.5,−3.5
N[C@@H](CS)C(=O)O [Cysteine],140.0,146.1,148.0,167.0,–,–,–,–,–
CC[C@H](C)[C@H](N)C(=O)O [Isoleucine],182.0,181.0,195.0,197.0,–,–,–,–,–
N[C@@H](CO)C(=O)O [Ser],–,–,–,–,−0.26,0.6,0.3,−0.1,−0.8
NC(=O)C[C@H](N)C(=O)O [Asparagine],158.0,165.5,187.0,195.0,–,–,–,–,–
N[C@@H](Cc1c[nH]c2ccccc12)C(=O)O [Trp],–,–,–,–,0.37,1.9,−3.4,0.3,−0.9
N[C@@H](CC(=O)O)C(=O)O [Aspartate],151.0,158.7,187.0,193.0,–,–,–,–,–
N[C@@H](CCC(=O)O)C(=O)O [Glutamate],183.0,186.2,214.0,–,–,–,–,–,–
N=C(N)NCCC[C@H](N)C(=O)O [Arginine],241.0,256.0,265.0,274.0,–,–,–,–,–
N[C@@H](Cc1ccc(O)cc1)C(=O)O [Tyrosine],229.0,236.8,255.0,263.0,–,–,–,–,–
N[C@@H](CCC(=O)O)C(=O)O [Glu],–,–,–,–,−0.62,−8.2,3.0,−0.7,−3.5
N[C@@H](Cc1ccccc1)C(=O)O [Phenylalanine],218.0,222.8,228.0,240.0,–,–,–,–,–
O=C(O)[C@@H]1CCCN1 [Proline],143.0,146.8,154.0,–,–,–,–,–,–
CSCC[C@H](N)C(=O)O [Methionine],204.0,203.4,203.0,224.0,–,–,–,–,–
N=C(N)NCCC[C@H](N)C(=O)O [Arg],–,–,–,–,−1.80,−12.3,3.0,−1.4,−4.5
CC(C)[C@H](N)C(=O)O [Val],–,–,–,–,0.54,2.6,−1.5,0.6,4.2
